Measurements taken from patent publication US20090215805A1, “4-Heteroaryl Pyrimidine Derivatives and use thereof as Protein Kinase Inhibitors” (Cyclacel Limited, priority 2005, published 2009).

Columns and labels:
[1] = molecular target: T1, Human aurora kinase A (Homo sapiens, UniProt O14965); experiment: Aurora-A (human) kinase assay; format: biochemical; settings: values marked *: Human aurora kinase A; read-out: Aur A IC50 (*Human aurora kinase A)
T1 construct: purchased Upstate, Dundee, UK
T1 sequence (O14965 1-403): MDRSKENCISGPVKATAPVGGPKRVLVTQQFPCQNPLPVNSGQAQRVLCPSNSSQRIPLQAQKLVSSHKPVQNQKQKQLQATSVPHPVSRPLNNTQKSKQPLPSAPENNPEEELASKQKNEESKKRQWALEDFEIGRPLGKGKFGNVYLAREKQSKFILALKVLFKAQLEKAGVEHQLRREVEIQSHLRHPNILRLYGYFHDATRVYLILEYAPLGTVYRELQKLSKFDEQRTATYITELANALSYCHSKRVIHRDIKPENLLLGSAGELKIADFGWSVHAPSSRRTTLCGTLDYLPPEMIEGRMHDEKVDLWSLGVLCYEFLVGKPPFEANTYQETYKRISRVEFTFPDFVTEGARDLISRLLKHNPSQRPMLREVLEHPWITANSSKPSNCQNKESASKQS
Protocol: This was achieved by measurement of incorporation of radioactive phosphate from ATP into Kemptide substrate (LRRASLG), upon phosphorylation by commercially obtained aurora-A (human, Upstate, Dundee, UK). Assays were performed using 96-well plates and appropriate assay buffers (20 mM Tris, 25 mM β-glycerophosphate, 5 mM EGTA, 1 mM DTT, 1 mM sodium vanadate, pH 7.5), into which were added 2-5 ng of active enzyme with 500 μM substrate (Kemptide). The reactions were initiated by addition of MgATP mix (15 mM MgCl2+100 μM ATP with 15-25 kBq per well of [γ-^32P]-ATP) and mixtures incubated for 30 min at 30° C. Reactions were stopped by addition of an equal volume of 75 mM aq orthophosphoric acid, followed by filtration through p81 filterplates (Whatman Polyfiltronics, Kent, UK). After washing 4 times with 75 mM aq orthophosphoric acid, plates were dried, scintillant added and incorporated radioactivity measured in a scintillation counter (TopCount, Packard Instruments, Pangbourne, Berks, UK). Compounds for kinase assay were made up as 10 mM stocks in DMSO and diluted into 10% DMSO in assay buffer. Data was analysed using curve-fitting software (XLfit version 4.0.2, IDBS, Guildford, Surrey, UK) to determine IC50 values (concentration of test compound which inhibits kinase activity by 50%).

[2] = molecular target: DM Aur A (Dm AK-A) (Drosophila melanogaster, UniProt Q9VGF9); experiment: Dm aurora A kinase assay (DM Aur A / Dm AK-A); format: biochemical; settings: for Ki: in vitro kinase assay; for IC50: values without asterisk (DM aurora A)
Sequence of DM Aur A (Dm AK-A) (Q9VGF9 entry or part of it): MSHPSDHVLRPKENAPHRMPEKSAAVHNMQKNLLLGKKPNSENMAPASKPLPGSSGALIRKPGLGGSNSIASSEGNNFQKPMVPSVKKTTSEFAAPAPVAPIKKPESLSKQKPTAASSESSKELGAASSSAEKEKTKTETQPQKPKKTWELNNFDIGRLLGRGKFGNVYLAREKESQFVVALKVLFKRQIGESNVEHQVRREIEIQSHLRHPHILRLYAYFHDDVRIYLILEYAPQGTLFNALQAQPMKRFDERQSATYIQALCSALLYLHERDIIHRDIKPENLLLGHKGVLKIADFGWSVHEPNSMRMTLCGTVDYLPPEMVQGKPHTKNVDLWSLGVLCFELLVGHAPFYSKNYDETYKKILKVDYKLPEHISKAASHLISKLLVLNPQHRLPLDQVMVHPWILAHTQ
Protocol: (§1) The compounds of the invention above were investigated for their ability to inhibit the enzymatic activity of various protein kinases. This was achieved by measurement of incorporation of radioactive phosphate from ATP into appropriate polypeptide substrates. Recombinant protein kinases and kinase complexes were produced or obtained commercially. Assays were performed using 96-well plates and appropriate assay buffers (typically 25 mM β-glycerophosphate, 20 mM MOPS, 5 mM EGTA, 1 mM DTT, 1 mM […], pH 7.4), into which were added 2-4 μg of active enzyme with appropriate substrates. The reactions were initiated by addition of Mg/ATP mix (15 mM MgCl2+100 μM ATP with 30-50 kBq per well of [γ-^32P]-ATP) and mixtures incubated as required at 30° C. Reactions were stopped on ice, followed by filtration through p81 filterplates or GF/C filterplates (Whatman Polyfiltronics, Kent, UK). After washing 3 times with 75 mM aq orthophosphoric acid, plates were dried, scintillant added and incorporated radioactivity measured in a scintillation counter (TopCount, Packard Instruments, Pangbourne, Berks, UK). Compounds for kinase assay were made up as 10 mM stocks in DMSO and diluted into 10% DMSO in assay buffer. Data was analysed using curve-fitting software (GraphPad Prism version 3.00 for Windows, GraphPad Software, San Diego Calif. USA) to determine IC50 values (concentration of test compound which inhibits kinase activity by 50%).

[3] = molecular target: CDK2/E (Homo sapiens, UniProt P24941); experiment: CDK2/E in vitro kinase assay; format: biochemical
Protocol: as §1

[4] = molecular target: GSK3 (GSK-3β) (Oryctolagus cuniculus, UniProt A0A5F9DUX8); experiment: GSK-3 kinase assay; format: biochemical, rabbit; settings: in vitro kinase assay
Sequence of GSK3 (GSK-3β) (A0A5F9DUX8 entry or part of it): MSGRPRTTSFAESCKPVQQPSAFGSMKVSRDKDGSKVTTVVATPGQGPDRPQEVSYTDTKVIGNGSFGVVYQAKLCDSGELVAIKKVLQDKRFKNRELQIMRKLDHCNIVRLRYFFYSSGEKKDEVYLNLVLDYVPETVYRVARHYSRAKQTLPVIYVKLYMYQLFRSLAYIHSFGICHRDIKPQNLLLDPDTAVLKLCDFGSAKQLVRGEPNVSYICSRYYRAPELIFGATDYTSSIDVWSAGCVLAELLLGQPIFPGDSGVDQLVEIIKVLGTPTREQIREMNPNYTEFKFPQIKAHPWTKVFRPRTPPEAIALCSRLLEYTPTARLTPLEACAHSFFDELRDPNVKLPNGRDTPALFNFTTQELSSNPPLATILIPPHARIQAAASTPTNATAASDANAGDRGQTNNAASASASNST
Protocol: GSK-3 was obtained from New England Biolabs (UK) Ltd., Hitchin, Herts. The recombinant enzyme was isolated from a strain of E. coli that carries a clone expressing GSK-3β derived from a rabbit skeletal muscle cDNA library [Wang, Q. M.; Fiol, C. J.; DePaoli-Roach, A. A.; Roach, P. J. J. Biol. Chem., 1994, 269, 14566]. Inhibition of GSK-3 function was assessed by measurement of phosphorylation of CREB phosphopeptide KRREILSRRPphosphoSYR in the presence of test compounds. Using a 96-well assay format, GSK3 (7.5 U) was incubated for 30 min at 30° C. in a total volume of 25 μL in 20 mM MOPS pH 7.2, 25 mM β-glycerophosphate, 5 mM EGTA, 1 mM DTT, 1 mM […], 40 μM CREB peptide, 15 mM MgCl2 and 100 μM ATP (containing 0.25 μCi [γ-^32P]-ATP) in the presence of varying concentrations of test compound. The samples were transferred to 96-well p81 filter plates (Whatman Polyfiltronics, Kent, UK), and the plates were washed 4 times with 200 μL/well of 75 mM aq orthophosphoric acid. Scintillation liquid (50 μL) was added to each well, and incorporated radioactivity for each sample was determined using a scintillation counter (TopCount, Packard Instruments, Pangboume, Berks, UK).

Row | Compound | IC50 [1] [nM] | Ki [2] [nM] | IC50 [2] [nM] | Ki [3] [nM] | Ki [4] [nM] | melting point [°C]
1 | Cc1cc(N2CCOCC2)ccc1Nc1nccc(-c2c(C)c[nH]c2C)n1 [Compound 50] | > 10000 |  |  |  |  | 
2 | Cc1ccc([N+](=O)[O-])cc1Nc1nccc(-c2c(C)[nH]c(C#N)c2C)n1 [Compound 27] |  | > 10000 | ≥ 10000 | > 10000 | 375 | 
3 | Cc1c[nH]c(C)c1-c1ccnc(Nc2ccc(N3CCOCC3)c(Cl)c2)n1 [Compound 44] | 261 |  |  |  |  | 
4 | Cc1[nH]c(C#N)c(C)c1-c1ccnc(Nc2ccc(N3CCN(Cc4ccccc4)CC3)cc2)n1 [Compound 40] |  | 108 | 276 |  |  | 
5 | Cc1c[nH]c(C)c1-c1ccnc(Nc2ccc(C#N)cc2)n1 [Compound 1] |  | > 10000 | ≥ 10000 |  | 601 | 
6 | COc1cc(Nc2nccc(-c3c(C)cn(C)c3C)n2)cc(OC)c1OC [Compound 57] |  |  |  | > 10000 |  | 
7 | Cc1[nH]c(C#N)c(C)c1-c1ccnc(Nc2ccc(N3CCOCC3)cc2)n1 [Compound 24] |  |  |  | 574 | 127 | 
8 | COc1cc(Nc2nccc(-c3c(C)c[nH]c3C)n2)cc(OC)c1OC [Compound 56] |  |  |  | > 10000 |  | 
9 | Cc1[nH]c(C#N)c(C)c1-c1ccnc(Nc2cccc(S(=O)(=O)NC(C)C)c2)n1 [Compound 34] |  | 1300 | 3320 | 876 | 5 | 
10 | Cc1c[nH]c(C)c1-c1ccnc(Nc2cc(Cl)c(N3CCOCC3)c(Cl)c2)n1 [Compound 45] | > 10000 |  |  |  |  | 
11 | CCOC(=O)c1[nH]c(C)c(-c2ccnc(Nc3cc(Cl)c(N4CCOCC4)c(Cl)c3)n2)c1C [Compound 47] | > 10000 |  |  |  |  | 
12 | CCOC(=O)c1[nH]c(C)c(-c2ccnc(Nc3ccc(N4CCOCC4)c(Cl)c3)n2)c1C [Compound 46] | 3030 |  |  |  |  | 
13 | CCOC(=O)c1[nH]c(C)c(-c2ccnc(Nc3cccc(O)c3)n2)c1-c1ccccc1 [Compound 7] |  | 423 |  |  |  | 123.1 to 124.2
14 | CCOC(=O)c1[nH]c(C)c(-c2ccnc(Nc3cc(OC)c(OC)c(OC)c3)n2)c1C [Compound 58] |  |  |  | 4700 |  | 
15 | COc1cc(Nc2nccc(-c3c(C)c(C#N)n(C)c3C)n2)cc(OC)c1OC [Compound 53] | 125 |  |  | 1120 |  | 
16 | COCCOC(=O)c1[nH]c(C)c(-c2ccnc(Nc3ccc(N4CCOCC4)cc3)n2)c1-c1ccccc1 [Compound 37] |  | 333 | 853 |  |  | 
17 | Cc1c[nH]c(C)c1-c1ccnc(Nc2ccc(N3CC(C)OC(C)C3)cc2)n1 (centres unmarked) [Compound 51] | 230 |  |  |  |  | 
18 | Cc1cn(C)c(C)c1-c1ccnc(Nc2ccc(N3CCOCC3)c(Cl)c2)n1 [Compound 49] | 531 |  |  |  |  | 

Row | Compound | IC50 [1] [nM] | Ki [2] [nM] | IC50 [2] [nM] | Ki [3] [nM] | Ki [4] [nM] | melting point [°C]
19 | CCOC(=O)c1[nH]c(C)c(-c2ccnc(Nc3ccc(O)c([N+](=O)[O-])c3)n2)c1-c1ccccc1 [Compound 11] |  | 278 | 712 |  |  | 202 to 205
20 | COc1ccc(Nc2nccc(-c3c(C)c[nH]c3C)n2)cn1 [Compound 26] |  |  |  | 861 | 167 | 
21 | CC(=O)N1CCN(c2ccc(Nc3nccc(-c4c(C)c(C#N)n(C)c4C)n3)cn2)CC1 [Compound 39] |  | 91 | 234 |  |  | 
22 | CCOC(=O)c1[nH]c(C)c(-c2ccnc(Nc3ccc(C(F)(F)F)cc3)n2)c1-c1ccccc1 [Compound 10] |  | > 10000 | ≥ 10000 |  |  | 227 to 230
23 | COc1cc(Nc2nccc(-c3c(C)[nH]c(C#N)c3C)n2)cc(OC)c1OC [Compound 52] | 168 |  |  | 759 |  | 
24 | CC(=O)N1CCN(c2ccc(Nc3nccc(-c4c(C)[nH]c(C#N)c4C)n3)cc2)CC1 [Compound 41] |  | 19 | 48 | 308 |  | 
25 | COc1ccc(C)c(Nc2nccc(-c3c(C)[nH]c(C#N)c3C)n2)c1 [Compound 29] |  | 2520 | 6470 | > 10000 | 731 | 
26 | CCOC(=O)c1[nH]c(C)c(-c2ccnc(Nc3ccc(N4CCOCC4)cc3)n2)c1C [Compound 43] |  | 103 | 265 |  |  | 
27 | Cc1c(-c2ccnc(Nc3ccc(N(C)C)cc3)n2)c(C)n(C)c1C#N [Compound 20] |  |  |  | 538 | 11 | 
28 | Cc1cc(Nc2nccc(-c3c(C)[nH]c(C#N)c3C)n2)cnc1Cl [Compound 33] |  | 666 | 1700 |  | 7 | 
29 | CNc1ccc(Nc2nccc(-c3c(C)[nH]c(C#N)c3C)n2)cc1C(F)(F)F [Compound 31] |  | 49 | 125 | 119 | 53 | 
30 | CCOC(=O)c1[nH]c(C)c(-c2ccnc(Nc3ccc(N4CCOCC4)c(OC)c3)n2)c1C [Compound 54] | 91 |  |  | > 10000 |  | 
31 | Cc1c[nH]c(C)c1-c1ccnc(Nc2cccc(C#N)c2)n1 [Compound 2] |  | > 10000 | ≥ 10000 |  | 3690 | 
32 | Cc1c[nH]c(C)c1-c1ccnc(Nc2ccc(N3CCOCC3)cc2)n1 [Compound 4] |  | 8 | 72 | 1810 |  | 
33 | Cc1cn(C)c(C)c1-c1ccnc(Nc2ccc(N3CCOCC3)cc2)n1 [Compound 48] | 222 |  |  |  |  | 
34 | CC(=O)N1CCN(c2ccc(Nc3nccc(-c4c(C)[nH]c(C#N)c4C)n3)cn2)CC1 [Compound 38] |  | 69 | 177 | 310 |  | 
35 | CCN(CC)CCNS(=O)(=O)c1ccc(Nc2nccc(-c3c(C)[nH]c(C#N)c3C)n2)cc1 [Compound 36] |  | 307 | 786 | 12 | 14 | 
